In this test the test system is CD44^high/CD24^low CSC-like subpopulation of PMA-stimulated MCF-7 cells (MCF-IM model). Nature of the test: FACS analysis of CD44high/CD24low CSC-like subpopulation in MCF-IM model. The format is cell-based, human. The settings on record: MCF-IM model; for CD44 high CD24 low-CSC-like subpopulation by FACS: bisindolylmaleimide-I 100 nm and 1 μM prior to PMA for 60 hrs. The procedure: Cells from each well/flask were harvested by means of trypsin treatment followed by two washes with PBS. Washed cells then re-suspended in an antibody cocktail consisting anti-CD44-APC, anti-CD24-PE antibodies (details in Table 5) and Hoechst 33258 dye (final dilution of 1:1000) (Invitrogen, Carlsbad, Calif.) in 1% FCS-PBS solution. Cells re-suspended in antibody cocktail were incubated for 20 minutes at 4° C. Cells were next washed twice with PBS and re-suspended in 1% FCS-PBS solution (volume based on cell number) and kept on ice until analyzed by FACS. Forward scatter (FSC) and side scatter parameters were selected with FITC fluorochrome excited by 488 nm argonion laser, PE fluorochrome excited by 488 nm and Hoechst fluorochrome excited by 350 nm helium-cadmium UV laser.
Flow Cytometry data was produced using either BD FACS LSR Flow Cytometer (Becton Dickinson Biosciences) or BD FACS Aria™ II Flow Cytometer (Becton Dickinson Biosciences) and analyzed using the data acquisition software CellQuest Pro (Becton Dickinson Biosciences) and FlowJo (Tree Star Inc., Ashland, Oreg.) software at the MCRF facility, JCSMR, ANU, Canberra, Australia. Single colour controls were used to set compensation parameters. Isotype controls were used for all corresponding primary antibodies in each experiment.
The FACS gating strategy used in this thesis is adopted and modified from the pioneer breast cancer stem cell publications (Al-Hajj et al., 2003) which sorted cells based on the CD44^high and CD24^low expression. […] To confirm that anti-CD44-APC and anti-CD24-PE antibodies were specific, isotype control antibodies were used. The isotype (negative controls) used for anti-CD24-PE was PE Mouse-Anti-human IgG2aK and for anti-CD44-APC was APC-Mouse-Anti-human IgG2bK. First, all the cells were stained with Hoechst 33258 to monitor cell viability. In addition cells were stained with varying concentrations of either APC or PE isotypes controls.
The adherent human mammary adenocarcinoma MCF-7 and MDA-MB-231 cells were cultured in low glucose DMEM (Gibco) and both supplemented with 10% FCS, 2 mM L-glutamine and 0.1% PSN antibiotics. Cells were stimulated with 0.65 ng/ml of phorbol 12-myristate 13-acetate (PMA) (Sigma-Aldrich) or 20 ng/ml of TGF-β (R&D systems) for the times indicated. For Bisindolylmaleimide-I (Calbiochem) or PKC-θ peptide inhibitor (Calbiochem) studies, cells were pre-treated with 1 μM or 30 μM of inhibitor respectively for 1 h prior to stimulation in MCF-7 cells. In case of MDA-MB-231, cells were treated with 4 μM or 30 μM Bisindolylmaleimide-I or PKC-θ peptide inhibitor respectively.
To separate CSC from non-CSC (NCSC), florescence activated cell sorting (FACS) was performed on single-cell suspensions that were stained with anti-CD44-APC (559942, BD Biosciences) and anti-CD24-PE antibodies (555428, BD Biosciences) along with Hoechst 33258 to monitor cell viability. As used throughout this work, CSC are defined by minority CD44^high/CD24^low, whereas NCSC are defined by rest of the cell populations.
The adherent human mammary adenocarcinoma cell lines MCF-7 were cultured in low glucose DMEM (Gibco) and supplemented with 10% FCS, 2 mM L-glutamine, and 0.1% PSN antibiotics. Cells were stimulated with 0.65 ng/ml of phorbol 12-myristate 13-acetate (PMA) (Sigma-Aldrich) for 60 hours. FACS was performed on single-cell suspensions stained with anti-CD44-APC (559942, BD Biosciences) and anti-CD24-PE antibodies (555428, BD Biosciences), along with Hoechst 33258 (561908, BD Biosciences) to monitor cell viability as previously detailed (Zafar et al., Chromatinized PKC-theta directly regulates inducible genes in epithelial to mesenchymal transition and breast cancer stem cells. Molecular and Cellular Biology, 2014, 34:16 2961-2980). […]
For orientation: Flow cytometry measures light scatter and fluorescence of single cells or particles in a stream.

Regarding `Cn1c2ccccc2c2c3c(c4c5ccccc5n(CCC#N)c4c21)CNC3=O` [Go6976], under “Go6976 1 μM prior to PMA for 60 hrs”, the “CD44 high CD24 low-CSC-like subpopulation (CSC formation) by FACS” value is reported as “did not prevent PMA-induced EMT-like morphological changes or CSC formation”.
In the case of `CN(C)CCCn1cc(C2=C(c3c[nH]c4ccccc34)C(=O)NC2=O)c2ccccc21` [bisindolylmaleimide-I], the “CD44 high CD24 low-CSC-like subpopulation by FACS” value is listed as “only very high concentration of bisindolylmaleimide-I but not Go 6976 inhibits CD44 high CD24 low-CSC-like subpopulation”. The “CD44 high CD24 low-CSC-like subpopulation by FACS” value (listed as Broad spectrum PKC pathway inhibitor) is “inhibition of EMT and CSC formation”.

The record behind these values is patent US10485772B2, “Compositions for modulating cancer stem cells and uses therefor” (University of Canberra, priority 2014, dated 2019).
